Patent US20230372288A1, “Application of Aristolochic Acid IVa in Preparation of Antihistamine or Drug for Treating Pneumonia” (priority 2022, published 2023)

Key:
[1] = tested on: histamine-induced pneumonia (lung tissue inflammatory exudation); assay: Histamine-induced pneumonia, pathological examination of lung tissue; format: in vivo, ICR mice; conditions: histamine 5 mg/kg, HE pathology
Description: 1. Experimental Method • (1) Model establishment, animal grouping and administration are the same as Embodiment 1. • (2) Pathological examination of lung tissue: after the mouse is euthanized due to vertebral detachment, it is dissected, and the lung tissue is taken out. The lung tissue is fixed with 10% neutral formalin for standby. After being fully fixed with formaldehyde, the submitted tissue is dehydrated step by step with ethanol, transparent with xylene, embedded with paraffin, and prepared conventionally into 3 μm of a paraffin section. HE, Masson, and PAS staining are used respectively, and the tissue inflammation exudation conditions are examined under an optical microscope (DP71 type, OLYMPUS, magnified by 400 times).
1. Experimental Method • (1) Model establishment, animal grouping and administration are the same as Contrast example 1. • (2) Pathological examination of lung tissue: same as Embodiment 2.

[2] = tested on: histamine-induced increase in mouse vascular permeability; assay: Histamine-induced increase in auricular vascular permeability, EB exudation test; format: in vivo, ICR mice; conditions: for Ear blue staining compared with histamine model group: observed within 30 min after histamine; for Amount of EB exudation: histamine 5 mg/kg tail vein on 4th day, both ears, n = 10, mean ± SD; for EB exudation reduction rate: histamine 5 mg/kg, vs histamine group
Protocol: ICR mice are divided into 6 groups, including a negative control group (control): physiological saline is administered by gavage for 3 days, and on the 4th day, the physiological saline is administered by tail vein injection; a histamine model group (histamine): the physiological saline is administered by the gavage for 3 days, and 5 mg/kg of the histamine is administered by the tail vein injection on the 4th day; an AA-IVa low-dose treatment group (histamine+AA-IVa/L): 5 mg/kg of AA-IVa is administered by the gavage for 3 days, and 5 mg/kg of the histamine is administered by the tail vein injection on the 4th day; and an AA-IVa high-dose treatment group (histamine+AA-IVa/H): 10 mg/kg of AA-IVa is administered by the gavage for 3 days, and 5 mg/kg of the histamine is administered by the tail vein injection on the 4th day.
AA-Iva: 0.5 wt % CMC-Na is used for preparation, and the concentration is 0.5 mg/ml and 0.25 mg/ml respectively. Histamine: 0.5 mg/ml of histamine solution is prepared with the physiological saline.
4.3 Modeling Method • (1) Principle: the histamine may cause an increase in permeability of capillary and venule walls, and plasma leaks into tissues, leading to local tissue edema. EB is a commonly used indicator for detecting the vascular permeability. After intravenous injection of mixed solution of histamine and EB into the mice, the increase in the vascular permeability caused by the histamine may be observed in a mouse auricle (the auricle is stained blue). • (2) Method for establishing model of increased auricular vascular permeability induced by histamine: after the histamine (0.5 mg/ml) is mixed with 0.8% EB solution at a ratio of 1:1 (volume), the tail vein injection is performed at 20 ml/kg of a volume according to the weight of each mouse. The auricular blue staining condition of the mouse is observed within 30 min after the histamine is administered, and a picture of the auricular blue staining is taken. • (3) Auricular vascular permeability test (EB exudation test): after the above auricular blue staining is observed and photographed, both ears are cut, and cut into pieces. After being soaked in 2 ml of formamide at a room temperature for 48 h, it is filtered with a 200-mesh stainless steel sieve. A filtrate is taken, and the absorbance (A) is measured at 610 nm. According to an EB standard curve, the amount (μg) of EB dye exudation is calculated.
EB exudation reduction rate (%)=(average value of EB exudation in histamine group−average value of EB exudation in administration group)/average value of EB exudation in histamine group×100%.
Statistical analysis is performed by using SPSS 20.0 software. The variance analysis is performed on the amount of EB exudation from the auricle tissue by using an ANOVA program. Data is expressed as mean±standard deviation (x±S), the histamine model group is compared with the control group, and each administration group is compared with the histamine model group, P<0.05 is considered as a significant difference.
ICR mice are divided into 4 groups, including a negative control group (control) (1): physiological saline is administered by gavage for 3 days, and on the 4th day, the physiological saline is administered by tail vein injection; a histamine model group (histamine) (2): the physiological saline is administered by the gavage for 3 days, and on the 4th day, 5 mg/kg of the histamine is administered by the tail vein injection; an AA-I treatment group (histamine+AA-I) (3): 10 mg/kg of AA-I is administered by the gavage for 3 days, and on the 4th day, 5 mg/kg of the histamine is administered by the tail vein injection; and an AA-II treatment group (histamine+AA-II) (4): 10 mg/kg of AA-II is administered by the gavage for 3 days, and on the 4th day, 5 mg/kg of the histamine is administered by the tail vein injection.
Preparation of AA-I and AA-II: 0.5 wt % CMC-Na is used to prepare AA-I and AA-II into 0.5 mg/ml respectively.

ICR mice = assay: Toxicity test, single gavage, death within 14 days and renal pathology; format: in vivo; conditions: 40 mg/kg once by gavage; for Death rate / Number of dead animals: 10 animals, within 14 days; for Renal pathological examination: survived animals after 14 days
Protocol: SPF-grade ICR mice are used, 18-22 g, with half male and half female. The animals are sourced from Beijing Vital River Laboratory Animal Technology Co., Ltd. After 1 day of adaptive feeding, the test substance is administered.
The mice are randomly divided into 4 groups: a control group (physiological saline is administered once by gavage) (1); an AA-I group (40 mg/kg of AA-I is administered once by the gavage) (2); an AA-II group (40 mg/kg of AA-II is administered once by the gavage) (3); and an AA-Iva group (40 mg/kg of AA-IVa is administered once by the gavage) (4).
Before the animals are administered by the gavage, it is fasted for 12 h without water deprivation. After being administered by the gavage, the animal death conditions within 14 days are recorded after the gavage administration. Survived animals are dissected, and kidneys are taken for the pathological examination.

[3] = drug 10 mg/kg by gavage for 3 days
[4] = drug 5 mg/kg by gavage for 3 days

Compound | Thickening of alveolar septa and exudation of inflammatory cells in lung tissue compared to model group ([1]; 10 mg/kg by gavage for 3 days) | Amount of EB exudation compared to histamine model group (in words) ([2]; 10 mg/kg by gavage for 3 days) | Ear blue staining compared with histamine model group ([2]; 10 mg/kg by gavage for 3 days) | Amount of EB exudation [2, 3] | EB exudation reduction rate [2, 3] | Death rate (ICR mice) | Number of dead animals (ICR mice) | Renal pathological examination (ICR mice) | Thickening of alveolar septa and exudation of inflammatory cells in lung tissue compared to model group ([1]; 5 mg/kg by gavage for 3 days) | Amount of EB exudation compared to histamine model group (in words) ([2]; different doses (5 and 10 mg/kg by gavage for 3 days), P<0.001) | Ear blue staining compared with histamine model group ([2]; different doses (5 and 10 mg/kg by gavage for 3 days)) | Amount of EB exudation [2, 4] | EB exudation reduction rate [2, 4]
O=C(O)c1cc2c(c3c1c([N+](=O)[O-])cc1ccccc13)OCO2 [AA-II, Aristolochic Acid II] | no significant difference compared to the histamine model group | no significant difference | no significant difference | 1.09 ± 0.34 µg | 7.6% | 10% | 1 | patchy tubular necrosis and tubular swelling | – | – | – | – | –
COc1cccc2c1cc([N+](=O)[O-])c1c(C(=O)O)cc3c(c12)OCO3 [AA-I, Aristolochic Acid I] | no significant difference compared to the histamine model group | no significant difference | no significant difference | 1.01 ± 0.28 µg | 14.4% | 70% | 7 | diffuse tubular necrosis | – | – | – | – | –
COc1cc(O)cc2c1cc([N+](=O)[O-])c1c(C(=O)O)cc3c(c12)OCO3 [AA-IVa, aristolochic acid IVa] | significant reduction compared to the model group | – | – | 0.82 ± 0.25 µg | 44.2% | – | – | no toxic damage | significant reduction compared to the model group | significantly decreased | significantly reduced | 0.93 ± 0.20 µg | 36.7%
